Assay results reported in patent US7375180B2, “Methods and compositions related to IRM compounds and Toll-like receptor 8” (3M Innovative Properties Company, priority 2003, dated 2008).

Biological target: T1, TLR8 (Homo sapiens, UniProt Q9NR97)
T1 sequence (Q9NR97 27-1041): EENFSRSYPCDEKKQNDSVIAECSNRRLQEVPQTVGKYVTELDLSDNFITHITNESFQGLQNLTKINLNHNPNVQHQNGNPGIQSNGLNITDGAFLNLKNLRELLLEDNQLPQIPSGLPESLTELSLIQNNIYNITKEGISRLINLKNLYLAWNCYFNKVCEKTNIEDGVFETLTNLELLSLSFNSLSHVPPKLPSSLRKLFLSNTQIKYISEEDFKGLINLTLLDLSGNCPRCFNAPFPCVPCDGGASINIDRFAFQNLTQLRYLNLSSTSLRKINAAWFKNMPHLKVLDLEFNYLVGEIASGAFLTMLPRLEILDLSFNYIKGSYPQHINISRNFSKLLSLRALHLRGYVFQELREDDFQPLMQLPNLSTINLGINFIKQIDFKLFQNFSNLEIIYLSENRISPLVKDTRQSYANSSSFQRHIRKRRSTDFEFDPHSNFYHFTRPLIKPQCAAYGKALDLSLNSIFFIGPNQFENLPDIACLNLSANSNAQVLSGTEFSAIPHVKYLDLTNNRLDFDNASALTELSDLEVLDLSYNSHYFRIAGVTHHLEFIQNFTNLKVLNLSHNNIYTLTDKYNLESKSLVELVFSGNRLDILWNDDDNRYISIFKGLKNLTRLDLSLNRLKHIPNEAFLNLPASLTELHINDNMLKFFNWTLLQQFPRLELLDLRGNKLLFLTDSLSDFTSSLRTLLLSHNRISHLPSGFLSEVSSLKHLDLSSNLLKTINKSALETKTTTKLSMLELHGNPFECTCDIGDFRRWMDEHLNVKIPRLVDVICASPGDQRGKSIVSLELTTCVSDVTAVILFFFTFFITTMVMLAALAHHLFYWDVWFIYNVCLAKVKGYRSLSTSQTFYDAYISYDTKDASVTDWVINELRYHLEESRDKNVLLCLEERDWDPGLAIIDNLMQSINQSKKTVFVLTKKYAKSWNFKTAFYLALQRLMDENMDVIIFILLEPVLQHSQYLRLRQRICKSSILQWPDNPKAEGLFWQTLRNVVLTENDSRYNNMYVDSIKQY
Test: Dose dependent TLR8-mediated NF-κB-luciferase response in HEK293 cells transfected with TLR8 (Example 5)
Format: cell-based
Parameters: expressed in transfected cells; host or cells: HEK293 (ATCC CRL-1573), pIRES vector, G-418 selected, co-transfected with NFkB-luc reporter
Experimental: Twenty-four hours before transfection, HEK293 cells were adhered to a 10 cm dish (Corning 430167, Corning Inc., Corning, N.Y.) at 37° C., 8% CO2. The cells were co-transfected with (1) pIRES (BD Biosciences Clontech, Palo Alto, Calif.) either (a) unmodified (HEK293-vector) or (b) containing human TLR8 (HEK293-TLR8), and (2) NFkB-luc reporter (Stratagene, La Jolla, Calif.) in a 10:1 ratio with Fugene 6 transfection reagent (Roche Diagnostics Corp., Indianapolis, Ind.) following the manufacturer's instructions. The plates were incubated for 24 hours following transfection and then selected in G-418 (400 μg/mL) for two weeks. The G-418-resistant cells containing either the TLR8 or empty vector were expanded in HEK293 media supplemented with G-418 for stimulation experiments.
The transfected cells were plated in white opaque 96 well plates (Costar 3917, Corning Inc., Corning, N.Y.) at a concentration of 5×10^4 cells per well in 100 μL of HEK293 media and incubated at 37° C., 8% CO2 for 4 hours. The cells were stimulated with 1 μL of IRM compounds at 1 mM in DMSO (final IRM concentration of 10 μM) or 1 μL DMSO as a control. The plates were then incubated an additional 16 hours at 37° C., 5% CO2. Luminescence was measured on an LMAX luminometer (Molecular Devices Corp., Sunnyvale, Calif.).
HEK293 cells were transfected as described in Example 1. HEK293 cultures were incubated with IRM compound or a negative control compound (1,5-dihydro-1-(2-methylpropyl)-4H-imidazo[4,5-c]quinolin-4-one, U.S. Pat. No. 4,698,348, Example 71) at concentrations of 0.1 μM, 0.3 μM, 1.0 μM, 3.0 μM, 10 μM, or 30 μM, or a vehicle control. Cultures were otherwise incubated as described in Example 1. Luciferase signals were read in RLU (Relative Luciferase Units) as described in Example 1.

Row | Compound | Fold increase over vehicle (0.1 μM) [fold] | Fold increase over vehicle (0.3 μM) [fold] | Fold increase over vehicle (1.0 μM) [fold] | Fold increase over vehicle (3.0 μM) [fold] | Fold increase over vehicle (10 μM) [fold] | Fold increase over vehicle (30 μM) [fold]
1 | COCCc1nc2c(N)nc3ccccc3c2n1CCCCNC(=O)c1cnc2ccccc2n1 [IRM38, N-{4-[4-amino-2-(2-methoxyethyl)-1H-imidazo[4,5-c]quinolin-1-yl]butyl}quinoxaline-2-carboxamide] | 0.8 | 0.8 | 1.3 | 3.8 | 6.9 | 7.8
2 | CCCCc1nc2c(N)nc3ccccc3c2n1CCCNC(=O)N1CCOCC1 [IRM39, N-[3-(4-amino-2-butyl-1H-imidazo[4,5-c]quinolin-1-yl)propyl]morpholine-4-carboxamide] | 0.9 | 1.1 | 1.2 | 1.5 | 6.8 | 18.0
3 | COCCc1nc2c(N)nc3c(c2n1CCOCCNC(=O)Nc1ccccc1)CCCC3 [IRM41, N-(2-{2-[4-amino-2-(methoxyethyl)-6,7,8,9-tetrahydro-1H-imidazo[4,5-c]quinolin-1-yl]ethoxy}ethyl)-n′-phenylurea] | 0.7 | 0.9 | 1.0 | 3.3 | 12.7 | 25.4
4 | CCCCc1nc2c(N)nc3ccccc3c2n1CCS(=O)(=O)CC [IRM42, 2-butyl-1-[2-(ethylsulfonyl)ethyl]-1H-imidazo[4,5-c]quinolin-4-amine] | 1.0 | 0.9 | 1.3 | 3.8 | 13.2 | 26.0
5 | CCc1nc2c(N)nc3ccccc3c2n1CCS(C)(=O)=O [IRM44, 2-ethyl-1-[2-(methylsulfonyl)ethyl]-1H-imidazo[4,5-c]quinolin-4-amine] | 0.9 | 1.1 | 1.0 | 0.9 | 2.5 | 12.5
6 | CCCCc1nc2c(N)nc3ccccc3c2n1CCS(C)(=O)=O [IRM45, 2-butyl-1-[2-(methylsulfonyl)ethyl]-1H-imidazo[4,5-c]quinolin-4-amine] | 1.5 | 2.5 | 6.7 | 12.1 | 17.0 | 24.3
7 | CCOCc1nc2c(N)nc3cc(-c4ccccc4)ccc3c2n1CC1CCNCC1 [IRM48, 2-ethoxymethyl-7-phenyl-1-(piperidin-4-ylmethyl)-1H-imidazo[4,5-c]quinolin-4-amine] | 0.9 | 0.6 | 1.1 | 1.2 | 8.2 | 9.5

The next lines start with the values.

Row | Fold increase over vehicle (0.1 μM) [fold] | Fold increase over vehicle (0.3 μM) [fold] | Fold increase over vehicle (1.0 μM) [fold] | Fold increase over vehicle (3.0 μM) [fold] | Fold increase over vehicle (10 μM) [fold] | Fold increase over vehicle (30 μM) [fold] | Compound
8 | 0.7 | 0.9 | 1.0 | 3.2 | 5.2 | 11.8 | COCCc1nc2c(N)nc3ccccc3c2n1CCCCNC(=O)c1cnc2ccccc2c1 [IRM37, N-{4-[4-amino-2-(2-methoxyethyl)-1H-imidazo[4,5-c]quinolin-1-yl]butyl}quinoline-3-carboxamide]
9 | 1.0 | 0.9 | 0.9 | 1.3 | 3.1 | 16.4 | CCCCc1nc2c(N)nc3ccccc3c2n1CCCS(C)(=O)=O [IRM40, 2-butyl-1-[3-(methylsulfonyl)propyl]-1H-imidazo[4,5-c]quinolin-4-amine]
10 | 2.3 | 2.3 | 3.3 | 2.1 | 5.6 | 17.0 | CCOCC(=O)NC(C)(C)Cn1c(COCC)nc2c(N)nc3ccccc3c21 [IRM43, N-{2-[4-amino-2-(ethoxymethyl)-1H-imidazo[4,5-c]quinolin-1-yl]-1,1-dimethylethyl}-2-ethoxyacetamide]
11 | 0.9 | 1.1 | 1.4 | 1.7 | 3.9 | 7.3 | CCCCc1nc2c(N)nc3ccccc3c2n1CC(C)(C)CNC(=O)N1CCOCC1 [IRM46, N-[3-(4-amino-2-butyl-1H-imidazo[4,5-c]quinolin-1-yl)-2,2-dimethylpropyl]morpholine-4-carboxamide]
12 | 0.9 | 0.8 | 1.1 | 1.7 | 4.9 | 12.5 | CCOCc1nc2c(N)nc3ccccc3c2n1CC(C)(C)NC(=O)NC(C)C [IRM47, N-{2-[4-amino-2-(ethoxymethyl)-1H-imidazo[4,5-c]quinolin-1-yl]-1,1-dimethylethyl}-n′-isopropylurea]
13 | 1.1 | 1.4 | 2.0 | 3.8 | 7.0 | 15.5 | COCCc1nc2c(N)nc3cc(-c4cncc(CO)c4)ccc3c2n1CC(C)(C)O [IRM49, 1-[4-amino-7-(5-hydroxymethylpyridin-3-yl)-2-(2-methoxyethyl)-1H-imidazo[4,5-c]quinolin-1-yl]-2-methylpropan-2-ol]
